Results as given in patent US20260232767A1, “INTERLEUKIN-23 RECEPTOR ANTAGONIST PEPTIDES FOR USE IN THE TREATMENT OF PSORIASIS” (Janssen Pharmaceutica NV, priority 2023, published 2026).
Where two headings read alike, the source gives them in different places.

Test system: anti-drug antibodies to the IL-23 receptor antagonist peptide
Settings: for Subjects positive for treatment-emergent anti-peptide antibodies at any time, %: through Week 16; for Subjects negative for treatment-emergent anti-peptide antibodies, % / Subjects positive for treatment-emergent anti-peptide antibodies, %: through Week 16 or Follow-up Week 20

## CC(=O)NCCCC[C@@H]1NC(=O)[C@H](Cc2c[nH]c3c(C)cccc23)NC(=O)[C@H]([C@@H](C)O)NC(=O)[C@H](CC(N)=O)NC(=O)[C@@H](NC(C)=O)C(C)(C)SSC(C)(C)[C@@H](C(=O)N[C@@H](Cc2ccc(OCCN)cc2)C(=O)N[C@@H](Cc2ccc3ccccc3c2)C(=O)NC2(C(=O)N[C@@H](CCC(=O)O)C(=O)N[C@@H](CC(N)=O)C(=O)N[C@@H](Cc3cccnc3)C(=O)N(C)CC(N)=O)CCOCC2)NC1=O [IL-23 receptor antagonist peptide, Ac-[Pen]*-N-T-[W(7-Me)]-[Lys(Ac)]-[Pen]*-Phe[4-(2-aminoethoxy)]-[2-Nal]-[THP]-E-N-[3-Pal]-Sarc-NH2 (*[Pen]-[Pen]* formdisulfidebond)]
25 mg QD, N=42
  Peak titer group ≥100-<1000, n subjects: 0
  Peak titer group ≥1000, n subjects: 0
  Positive at baseline: Baseline titers 1:50, n subjects: 0
  Treatment-boosted (footnote c): Baseline titers 1:50, n subjects: 0
  Treatment-emergent: Peak titers 1:50, n subjects: 1
  Subjects positive for treatment-emergent anti-peptide antibodies at any time, %: (2.4%)
  Subjects negative for treatment-emergent anti-peptide antibodies, %: 97.6%
  Subjects positive for treatment-emergent anti-peptide antibodies, %: 2.4%
50 mg QD, N=43
  Footnote d group: Baseline titers 1:50, n subjects: 3
  Peak titer group <50, n subjects: 1
  Peak titer group >50-<100, n subjects: 0
  Peak titer group ≥100-<1000, n subjects: 0
  Peak titer group ≥1000, n subjects: 0
  Positive at baseline: Baseline titers 1:50, n subjects: 3
  Subjects positive at baseline who were treatment-boosted for antibodies (footnote d: titers did not increase 2-fold), %: 7.0%
  Subjects positive for anti-peptide antibodies at baseline, %: 7.0%
  Treatment-boosted (footnote c): Baseline titers 1:50, n subjects: 0
  Treatment-emergent: Peak titers 1:50, n subjects: 1
  Subjects positive for treatment-emergent anti-peptide antibodies at any time, %: (2.3%)
  Subjects negative for treatment-emergent anti-peptide antibodies, %: 97.7%
  Subjects positive for treatment-emergent anti-peptide antibodies, %: 2.3%
100 mg BID, N=41
  Footnote d group: Baseline titers 1:50, n subjects: 0
  Peak titer group <50, n subjects: 3
  Peak titer group >50-<100, n subjects: 0
  Peak titer group ≥100-<1000, n subjects: 0
  Peak titer group ≥1000, n subjects: 0
  Positive at baseline: Baseline titers 1:50, n subjects: 0
  Treatment-boosted (footnote c): Baseline titers 1:50, n subjects: 0
  Treatment-emergent: Peak titers 1:50, n subjects: 3
  Subjects positive for treatment-emergent anti-peptide antibodies at any time, %: (7.3%)
  Subjects negative for treatment-emergent anti-peptide antibodies, %: 92.7%
  Subjects positive for treatment-emergent anti-peptide antibodies, %: 7.3%
100 mg QD, N=42
  Footnote d group: Baseline titers 1:50, n subjects: 0
  Peak titer group <50, n subjects: 3
  Peak titer group >50-<100, n subjects: 0
  Peak titer group ≥100-<1000, n subjects: 0
  Peak titer group ≥1000, n subjects: 0
  Positive at baseline: Baseline titers 1:50, n subjects: 0
  Treatment-boosted (footnote c): Baseline titers 1:50, n subjects: 0
  Treatment-emergent: Peak titers 1:50, n subjects: 3
  Subjects positive for treatment-emergent anti-peptide antibodies at any time, %: (7.1%)
  Subjects negative for treatment-emergent anti-peptide antibodies, %: 92.9%
  Subjects positive for treatment-emergent anti-peptide antibodies, %: 7.1%
3 of 209, all 50 mg QD group
  Participants positive for ADA prior to the first dose (baseline): 1.4%
Combined doses, N=209
  Footnote d group: Baseline titers 1:50, n subjects: 3
  Peak titer group <50, n subjects: 8
  Peak titer group >50-<100, n subjects: 0
  Peak titer group ≥100-<1000, n subjects: 0
  Peak titer group ≥1000, n subjects: 0
  Positive at baseline: Baseline titers 1:50, n subjects: 3
  Subjects positive at baseline who were treatment-boosted for antibodies (footnote d: titers did not increase 2-fold), %: (1.4%)
  Subjects positive for anti-peptide antibodies at baseline, %: (1.4%)
  Treatment-boosted (footnote c): Baseline titers 1:50, n subjects: 0
  Treatment-emergent: Peak titers 1:50, n subjects: 8
  Subjects positive for treatment-emergent anti-peptide antibodies at any time, %: (3.8%)
  Subjects negative for treatment-emergent anti-peptide antibodies, %: (96.2%)
  Subjects positive for treatment-emergent anti-peptide antibodies, %: (3.8%)
